Reference: patent publication US20120276634A1, “SOMATIC EMBRYOGENESIS AND EMBRYO HARVESTING AND METHOD AND APPARATUS FOR PREPARING PLANT EMBRYOS FOR PLANT PRODUCTION” (ArborGen Inc., priority 2005, published 2012)

Experiments:
[1] = test system: loblolly pine embryogenic cell lines (J and K); assay: Effect of brassinolide in post cryostorage recovery medium on tissue production; type: cell-based; settings: 0.1 μM in high casein Mi3
Description: This experiment addresses whether brassinolide in the post-cryogenic storage bulk up medium has a positive effect on tissue recovery and growth enabling faster tissue multiplication and bulk up; and whether there is a cell-line-by-treatment (with or without brassinolide) interaction that can be exploited to enable genotype screening to optimize the best combination for each cell line in terms of both tissue growth and subsequent somatic embryo production. Two post-cryostrorage recovery (bulk up) media treatments were tested: Treatment #1: Mi3 medium (Tables 1 and 2) with high (2.0 g/liter) casein (the improved medium) Treatment #2: The same high casein Mi3 with addition of 0.1 μM Brassinolide Five J cell lines and five K lines were tested. For each cell line, 4 vials (2 post-cryo recovery media×2 replications) were retrieved from cryostorage. Recovered tissue from each vial was transferred to their respective fresh medium at 2 week intervals using a raft transfer method. Weight data was recorded for tissue derived from each vial at the 6th week after cryo-retrieval. At the 6th week, tissues from both reps of each treatment were pooled and maintained on their respective maintenance medium using a tissue dispersion method: 200 mg per sample in 1 ml liquid Mi3 medium dispersed by agitation and poured onto each culture plate. A total of 800 mg of tissue from each cell line×post-cryo media combination were plated on embryo development medium (4 reps of 200 mg/plate) to test embryo production capacity. Total tissue weight at each subculture was recorded to calculate the potential of each treatment for tissue bulk up and embryo production. Harvestable somatic embryos from each plate were recorded at 9 weeks of incubation on MSG embryo development medium (Tables 1 and 2). Embryo production data was analyzed separately for the J and K cell lines using PROCGLM procedure of SAS. Embryo production potential for each treatment was calculated by multiplying embryo production data by the total potential tissue produced in each cell line and treatment.

[2] = test system: loblolly pine embryogenic cell lines (J and K); assay: Effect of brassinolide in post cryostorage recovery medium on embryo production and embryo production potential; type: cell-based; settings: 0.1 μM in high casein Mi3
Experimental: Five J cell lines and five K lines were tested. For each cell line, 4 vials (2 post-cryo recovery media×2 replications) were retrieved from cryostorage. Recovered tissue from each vial was transferred to their respective fresh medium at 2 week intervals using a raft transfer method. Weight data was recorded for tissue derived from each vial at the 6th week after cryo-retrieval. At the 6th week, tissues from both reps of each treatment were pooled and maintained on their respective maintenance medium using a tissue dispersion method: 200 mg per sample in 1 ml liquid Mi3 medium dispersed by agitation and poured onto each culture plate. A total of 800 mg of tissue from each cell line×post-cryo media combination were plated on embryo development medium (4 reps of 200 mg/plate) to test embryo production capacity. Total tissue weight at each subculture was recorded to calculate the potential of each treatment for tissue bulk up and embryo production. Harvestable somatic embryos from each plate were recorded at 9 weeks of incubation on MSG embryo development medium (Tables 1 and 2). Embryo production data was analyzed separately for the J and K cell lines using PROCGLM procedure of SAS. Embryo production potential for each treatment was calculated by multiplying embryo production data by the total potential tissue produced in each cell line and treatment. The effect of brassinolide in the improved Mi3 bulk up medium on subsequent embryo production was tested. […] Since cell line×media treatment interaction was highly significant, data from each line was analyzed separately for each treatment.

Which results are given for `CC(C)[C@H](C)[C@@H](O)[C@H](O)[C@@H](C)[C@H]1CC[C@H]2[C@@H]3COC(=O)[C@H]4C[C@H](O)[C@H](O)C[C@]4(C)[C@H]3CC[C@]12C` [brassinolide, Brassinolide]?
amount of tissue compared to the improved medium without brassinolide ([1]; J lines): 127%; amount of tissue compared to the improved medium without brassinolide ([1]; K lines): 191%; tissue production ([1]; all 10 cell lines): produced highest amount of tissue; increase in growth ([1]; slow-recovering cell lines K10, K11 and J4): two to three-fold; embryo production potential compared to the improved Mi3 without brassinolide ([2]; J cell lines): 149%; embryo production potential compared to the improved Mi3 without brassinolide ([2]; K cell lines): 136%; embryo production potential, higher compared to the control ([2]; both J and K lines): > 35%
